In brackets after ≈: the same amount, converted by molar mass.
What was measured:
[1] = biological target: Hepatocyte growth factor receptor (Homo sapiens, UniProt P08581); experiment: Inhibition of GST-tagged human c-Met expressed in SF9 cells
[2] = Solubility in water at pH 7.4; format: physicochemical

Sequence of Hepatocyte growth factor receptor (P08581 whole entry): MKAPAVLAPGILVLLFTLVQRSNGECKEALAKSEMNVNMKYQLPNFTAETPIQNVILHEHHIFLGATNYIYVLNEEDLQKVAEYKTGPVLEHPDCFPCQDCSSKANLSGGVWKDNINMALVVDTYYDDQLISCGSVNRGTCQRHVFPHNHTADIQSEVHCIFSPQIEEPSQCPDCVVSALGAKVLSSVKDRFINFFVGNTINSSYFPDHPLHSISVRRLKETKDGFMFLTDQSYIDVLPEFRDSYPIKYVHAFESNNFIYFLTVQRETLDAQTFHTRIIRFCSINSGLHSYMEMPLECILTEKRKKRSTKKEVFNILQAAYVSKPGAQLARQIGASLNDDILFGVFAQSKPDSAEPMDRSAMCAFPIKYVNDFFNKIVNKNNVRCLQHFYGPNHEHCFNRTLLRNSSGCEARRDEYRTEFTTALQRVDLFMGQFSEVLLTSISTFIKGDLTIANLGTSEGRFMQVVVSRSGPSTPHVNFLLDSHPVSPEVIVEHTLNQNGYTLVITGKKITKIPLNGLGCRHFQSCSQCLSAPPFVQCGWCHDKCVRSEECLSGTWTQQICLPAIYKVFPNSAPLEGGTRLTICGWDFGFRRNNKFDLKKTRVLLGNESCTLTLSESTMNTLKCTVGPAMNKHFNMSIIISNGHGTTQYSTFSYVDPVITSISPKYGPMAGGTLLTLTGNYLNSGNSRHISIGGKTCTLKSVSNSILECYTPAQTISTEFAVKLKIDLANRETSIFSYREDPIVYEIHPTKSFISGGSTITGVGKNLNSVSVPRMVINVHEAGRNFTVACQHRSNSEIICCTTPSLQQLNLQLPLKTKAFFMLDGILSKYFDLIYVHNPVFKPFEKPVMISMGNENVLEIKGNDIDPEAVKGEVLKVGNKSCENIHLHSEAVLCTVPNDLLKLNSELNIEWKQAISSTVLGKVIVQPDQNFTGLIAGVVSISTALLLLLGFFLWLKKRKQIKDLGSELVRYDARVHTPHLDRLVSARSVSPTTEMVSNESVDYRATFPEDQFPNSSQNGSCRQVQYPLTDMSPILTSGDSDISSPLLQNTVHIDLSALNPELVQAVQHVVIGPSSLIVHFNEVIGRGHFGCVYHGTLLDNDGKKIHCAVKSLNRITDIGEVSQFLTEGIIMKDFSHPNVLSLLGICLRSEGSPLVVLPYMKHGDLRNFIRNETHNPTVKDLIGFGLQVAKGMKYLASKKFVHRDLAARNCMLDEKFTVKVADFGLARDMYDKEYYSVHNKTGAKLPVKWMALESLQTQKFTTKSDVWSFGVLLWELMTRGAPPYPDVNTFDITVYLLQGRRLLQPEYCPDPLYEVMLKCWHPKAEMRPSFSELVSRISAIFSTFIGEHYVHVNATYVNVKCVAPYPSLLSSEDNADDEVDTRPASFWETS

IC50 [1]	solubility [2] [µg/mL]	SMILES
Not Active	–	N#Cc1ccc2[nH]c(-c3ccncc3)c(-c3cnc(N)nc3)c2n1
Not Active	–	CS(=O)(=O)c1ccc(-c2c(-c3ccncc3)[nH]c3ccc(C#N)nc23)cc1
Not Active	–	N#Cc1ccc2[nH]c(-c3ccncc3)c(-c3ccncc3)c2n1
–	1 (≈ 3.18 µM)	N#Cc1ccc2[nH]c(-c3ccncc3)c(-c3ccc(F)cc3)c2n1
Not Active	–	N#Cc1ccc2[nH]c(-c3ccccc3)c(-c3ccc(F)cc3)c2n1

— ChEMBL document CHEMBL1153352 (Bioorg Med Chem Lett, 2009)
